In PMC10176470, “Engaging a Non-catalytic Cysteine Residue Drives Potent and Selective Inhibition of Caspase-6” (Journal of the American Chemical Society, 2023):

How the values were obtained:
Assay type in all cases: cell-based
[1] = target: proteins of HEK293T cells transiently overexpressing caspase-6 (Homo sapiens, UniProt P62888); conditions: exp_ref Probe; protein RPL30 (P62888); analysis C6
[2] = target: proteins of HEK293T cells transiently overexpressing caspase-6 (Homo sapiens, UniProt Q9NUU7); conditions: protein DDX19A (Q9NUU7); exp_ref Probe; analysis C6
proteins of HEK293T cells transiently overexpressing caspase-6 (Homo sapiens, UniProt Q9NUU7), sequence (Q9NUU7 whole entry): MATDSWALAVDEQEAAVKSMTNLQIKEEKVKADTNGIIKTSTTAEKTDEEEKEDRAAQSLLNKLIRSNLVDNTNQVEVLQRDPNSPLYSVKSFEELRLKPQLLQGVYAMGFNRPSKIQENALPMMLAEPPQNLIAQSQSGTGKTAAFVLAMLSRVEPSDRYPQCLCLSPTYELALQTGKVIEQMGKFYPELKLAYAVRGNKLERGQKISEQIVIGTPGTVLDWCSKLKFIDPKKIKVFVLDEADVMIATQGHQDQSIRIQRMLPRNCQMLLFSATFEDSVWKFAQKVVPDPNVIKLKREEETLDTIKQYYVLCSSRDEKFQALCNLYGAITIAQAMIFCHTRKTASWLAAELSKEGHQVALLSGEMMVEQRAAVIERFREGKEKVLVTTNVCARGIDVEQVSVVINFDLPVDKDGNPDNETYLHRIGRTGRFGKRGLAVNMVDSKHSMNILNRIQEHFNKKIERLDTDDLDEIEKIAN

[3] = target: proteins of HEK293T cells transiently overexpressing caspase-6 (Homo sapiens, UniProt Q13838); conditions: exp_ref Probe; protein DDX39B (Q13838); analysis C6
proteins of HEK293T cells transiently overexpressing caspase-6 (Homo sapiens, UniProt Q13838), sequence (Q13838 whole entry): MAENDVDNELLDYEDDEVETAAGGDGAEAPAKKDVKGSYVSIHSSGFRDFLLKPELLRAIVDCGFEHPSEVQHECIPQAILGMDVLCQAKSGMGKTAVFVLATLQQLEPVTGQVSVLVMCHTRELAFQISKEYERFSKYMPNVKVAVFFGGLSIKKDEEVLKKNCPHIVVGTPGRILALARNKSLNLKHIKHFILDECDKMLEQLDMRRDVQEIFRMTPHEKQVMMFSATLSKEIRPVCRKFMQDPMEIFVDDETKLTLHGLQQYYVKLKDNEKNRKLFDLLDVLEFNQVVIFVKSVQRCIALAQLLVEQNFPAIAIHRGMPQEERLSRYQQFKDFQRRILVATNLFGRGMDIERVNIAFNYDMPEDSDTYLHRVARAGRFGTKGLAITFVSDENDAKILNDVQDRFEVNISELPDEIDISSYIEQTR

[4] = target: proteins of HEK293T cells transiently overexpressing caspase-6 (Homo sapiens, UniProt P49023); conditions: Probe; protein PXN P49023
proteins of HEK293T cells transiently overexpressing caspase-6 (Homo sapiens, UniProt P49023), sequence (P49023 whole entry): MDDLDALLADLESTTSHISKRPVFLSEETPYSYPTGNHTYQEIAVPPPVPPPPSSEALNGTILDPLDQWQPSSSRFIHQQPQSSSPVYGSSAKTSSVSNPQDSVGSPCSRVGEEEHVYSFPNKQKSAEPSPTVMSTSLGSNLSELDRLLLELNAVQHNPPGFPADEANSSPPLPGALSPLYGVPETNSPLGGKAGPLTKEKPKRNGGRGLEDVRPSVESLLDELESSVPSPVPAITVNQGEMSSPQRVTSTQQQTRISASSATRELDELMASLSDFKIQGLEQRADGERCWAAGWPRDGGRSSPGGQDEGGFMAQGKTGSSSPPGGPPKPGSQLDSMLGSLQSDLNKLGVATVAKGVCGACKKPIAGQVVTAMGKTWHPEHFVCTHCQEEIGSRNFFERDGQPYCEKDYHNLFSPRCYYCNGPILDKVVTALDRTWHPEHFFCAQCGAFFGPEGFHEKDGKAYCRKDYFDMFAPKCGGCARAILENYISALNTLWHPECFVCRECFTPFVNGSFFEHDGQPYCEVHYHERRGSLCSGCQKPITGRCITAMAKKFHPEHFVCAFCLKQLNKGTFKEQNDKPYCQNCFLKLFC

[5] = target: proteins of HEK293T cells transiently overexpressing caspase-6 (Homo sapiens, UniProt P35232); conditions: Probe; protein PHB P35232
proteins of HEK293T cells transiently overexpressing caspase-6 (Homo sapiens, UniProt P35232), sequence (P35232 whole entry): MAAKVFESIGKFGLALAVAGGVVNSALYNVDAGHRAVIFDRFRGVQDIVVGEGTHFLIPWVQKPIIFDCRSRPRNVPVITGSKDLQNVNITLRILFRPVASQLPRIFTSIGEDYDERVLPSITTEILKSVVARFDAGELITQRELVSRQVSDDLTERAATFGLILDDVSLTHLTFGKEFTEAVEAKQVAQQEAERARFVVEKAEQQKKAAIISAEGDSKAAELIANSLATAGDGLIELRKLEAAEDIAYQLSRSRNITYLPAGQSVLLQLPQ

[6] = target: proteins of HEK293T cells transiently overexpressing caspase-6 (Homo sapiens, UniProt P63241); conditions: exp_ref Probe; protein EIF5A (P63241); analysis C6
proteins of HEK293T cells transiently overexpressing caspase-6 (Homo sapiens, UniProt P63241), sequence (P63241 whole entry): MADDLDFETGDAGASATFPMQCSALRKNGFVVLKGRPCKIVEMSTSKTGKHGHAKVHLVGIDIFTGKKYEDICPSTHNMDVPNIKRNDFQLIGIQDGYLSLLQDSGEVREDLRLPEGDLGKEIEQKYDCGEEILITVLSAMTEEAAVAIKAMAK

[7] = target: T1, proteins of HEK293T cells transiently overexpressing caspase-6 (Homo sapiens, UniProt P14324); conditions: Probe; protein FDPS P14324
T1 sequence (P14324 1-419): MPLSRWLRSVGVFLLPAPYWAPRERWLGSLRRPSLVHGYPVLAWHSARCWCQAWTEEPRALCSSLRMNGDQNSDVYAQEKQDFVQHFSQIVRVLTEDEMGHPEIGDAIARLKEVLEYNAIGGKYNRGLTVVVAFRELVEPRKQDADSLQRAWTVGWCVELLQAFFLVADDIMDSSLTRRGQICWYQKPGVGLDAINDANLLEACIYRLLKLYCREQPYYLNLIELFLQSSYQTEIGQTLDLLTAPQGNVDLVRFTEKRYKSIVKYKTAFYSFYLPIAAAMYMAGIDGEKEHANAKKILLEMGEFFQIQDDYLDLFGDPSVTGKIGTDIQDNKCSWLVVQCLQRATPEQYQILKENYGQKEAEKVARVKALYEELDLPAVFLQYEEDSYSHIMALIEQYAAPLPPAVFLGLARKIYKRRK

[8] = target: proteins of HEK293T cells transiently overexpressing caspase-6 (Homo sapiens, UniProt P07195)
proteins of HEK293T cells transiently overexpressing caspase-6 (Homo sapiens, UniProt P07195), sequence (P07195 whole entry): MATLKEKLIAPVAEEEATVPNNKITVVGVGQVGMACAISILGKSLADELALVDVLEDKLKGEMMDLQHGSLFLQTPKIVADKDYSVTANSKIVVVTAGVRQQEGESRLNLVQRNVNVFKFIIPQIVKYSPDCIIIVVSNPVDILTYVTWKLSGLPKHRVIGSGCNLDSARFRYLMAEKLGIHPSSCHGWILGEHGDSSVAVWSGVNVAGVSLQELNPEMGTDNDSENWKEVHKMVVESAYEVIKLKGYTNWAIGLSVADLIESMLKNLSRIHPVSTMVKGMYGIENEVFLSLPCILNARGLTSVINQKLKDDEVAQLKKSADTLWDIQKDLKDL

[9] = target: T2, proteins of HEK293T cells transiently overexpressing caspase-6 (Homo sapiens, UniProt P54577); conditions: protein YARS (P54577), analysis C6
T2 sequence (P54577 1-528): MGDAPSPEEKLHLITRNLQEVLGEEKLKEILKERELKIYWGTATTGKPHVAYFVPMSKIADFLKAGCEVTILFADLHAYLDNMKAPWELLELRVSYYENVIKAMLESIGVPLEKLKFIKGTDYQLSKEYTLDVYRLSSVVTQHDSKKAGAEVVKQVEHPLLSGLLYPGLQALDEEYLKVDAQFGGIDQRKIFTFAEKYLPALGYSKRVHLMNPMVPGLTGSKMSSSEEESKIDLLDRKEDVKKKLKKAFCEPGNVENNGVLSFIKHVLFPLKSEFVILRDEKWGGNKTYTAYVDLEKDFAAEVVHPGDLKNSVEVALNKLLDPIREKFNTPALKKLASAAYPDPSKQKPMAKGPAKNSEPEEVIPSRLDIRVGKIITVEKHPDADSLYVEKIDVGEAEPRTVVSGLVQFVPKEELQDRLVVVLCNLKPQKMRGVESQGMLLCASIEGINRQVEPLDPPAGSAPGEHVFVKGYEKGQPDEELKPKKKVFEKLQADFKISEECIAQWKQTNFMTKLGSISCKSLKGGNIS

[10] = target: proteins of HEK293T cells transiently overexpressing caspase-6 (Homo sapiens, UniProt O14979); conditions: exp_ref Probe; protein HNRNPDL (O14979); analysis C6
proteins of HEK293T cells transiently overexpressing caspase-6 (Homo sapiens, UniProt O14979), sequence (O14979 whole entry): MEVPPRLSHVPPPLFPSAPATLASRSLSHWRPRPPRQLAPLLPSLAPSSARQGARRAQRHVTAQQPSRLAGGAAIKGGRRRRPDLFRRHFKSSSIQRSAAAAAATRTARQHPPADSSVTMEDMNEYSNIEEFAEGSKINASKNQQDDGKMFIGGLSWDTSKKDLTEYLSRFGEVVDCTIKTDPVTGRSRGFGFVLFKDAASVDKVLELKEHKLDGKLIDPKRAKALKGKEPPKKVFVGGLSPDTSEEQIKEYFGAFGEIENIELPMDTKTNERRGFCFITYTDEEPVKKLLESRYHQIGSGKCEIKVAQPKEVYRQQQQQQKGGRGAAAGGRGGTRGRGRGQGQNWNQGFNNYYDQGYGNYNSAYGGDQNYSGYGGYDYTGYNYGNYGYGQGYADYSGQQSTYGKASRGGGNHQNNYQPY

[11] = target: proteins of HEK293T cells transiently overexpressing caspase-6 (Homo sapiens, UniProt Q15365); conditions: protein PCBP1 (Q15365); exp_ref Probe; analysis C6
proteins of HEK293T cells transiently overexpressing caspase-6 (Homo sapiens, UniProt Q15365), sequence (Q15365 whole entry): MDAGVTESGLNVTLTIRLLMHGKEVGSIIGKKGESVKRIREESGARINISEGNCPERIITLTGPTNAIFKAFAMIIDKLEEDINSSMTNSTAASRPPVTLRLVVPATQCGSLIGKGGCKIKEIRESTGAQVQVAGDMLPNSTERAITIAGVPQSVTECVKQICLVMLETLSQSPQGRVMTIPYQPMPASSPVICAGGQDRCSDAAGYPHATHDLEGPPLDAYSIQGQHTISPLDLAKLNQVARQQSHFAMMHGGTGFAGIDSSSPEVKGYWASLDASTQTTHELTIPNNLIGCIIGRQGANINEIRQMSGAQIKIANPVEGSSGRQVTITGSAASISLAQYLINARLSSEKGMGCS

[12] = target: proteins of HEK293T cells transiently overexpressing caspase-6 (Homo sapiens, UniProt P49411); conditions: exp_ref Probe; protein TUFM (P49411); analysis C6
[13] = target: T3, proteins of HEK293T cells transiently overexpressing caspase-6 (Homo sapiens, UniProt P09622)
T3 sequence (P09622 36-509): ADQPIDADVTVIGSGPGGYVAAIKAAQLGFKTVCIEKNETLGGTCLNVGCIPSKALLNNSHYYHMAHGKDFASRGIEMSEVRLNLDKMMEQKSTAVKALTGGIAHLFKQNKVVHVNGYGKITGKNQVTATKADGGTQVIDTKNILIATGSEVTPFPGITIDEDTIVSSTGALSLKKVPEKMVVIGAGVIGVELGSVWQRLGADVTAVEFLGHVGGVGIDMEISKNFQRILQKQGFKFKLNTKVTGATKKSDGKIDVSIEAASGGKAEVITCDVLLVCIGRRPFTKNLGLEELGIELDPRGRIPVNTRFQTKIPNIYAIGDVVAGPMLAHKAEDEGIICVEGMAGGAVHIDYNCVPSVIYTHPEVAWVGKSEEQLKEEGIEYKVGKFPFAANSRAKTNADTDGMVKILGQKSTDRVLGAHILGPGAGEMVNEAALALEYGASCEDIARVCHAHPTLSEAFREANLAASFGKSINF

[14] = target: proteins of HEK293T cells transiently overexpressing caspase-6 (Homo sapiens, UniProt P31930); conditions: Probe; protein UQCRC1 P31930
proteins of HEK293T cells transiently overexpressing caspase-6 (Homo sapiens, UniProt P31930), sequence (P31930 35-480): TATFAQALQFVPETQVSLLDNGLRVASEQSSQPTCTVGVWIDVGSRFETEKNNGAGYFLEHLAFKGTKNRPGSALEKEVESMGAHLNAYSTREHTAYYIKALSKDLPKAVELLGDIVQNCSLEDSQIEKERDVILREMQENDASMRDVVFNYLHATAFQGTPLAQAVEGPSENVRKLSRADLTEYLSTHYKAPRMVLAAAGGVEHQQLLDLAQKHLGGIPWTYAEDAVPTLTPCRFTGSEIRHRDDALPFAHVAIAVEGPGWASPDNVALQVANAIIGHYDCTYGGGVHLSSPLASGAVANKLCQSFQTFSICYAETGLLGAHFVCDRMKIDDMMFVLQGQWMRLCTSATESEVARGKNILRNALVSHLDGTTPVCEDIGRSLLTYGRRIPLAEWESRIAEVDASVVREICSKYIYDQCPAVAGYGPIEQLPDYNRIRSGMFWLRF

[15] = target: proteins of HEK293T cells transiently overexpressing caspase-6 (Homo sapiens, UniProt Q99460); conditions: protein PSMD1 (Q99460); exp_ref Probe; analysis C6
proteins of HEK293T cells transiently overexpressing caspase-6 (Homo sapiens, UniProt Q99460), sequence (Q99460 whole entry): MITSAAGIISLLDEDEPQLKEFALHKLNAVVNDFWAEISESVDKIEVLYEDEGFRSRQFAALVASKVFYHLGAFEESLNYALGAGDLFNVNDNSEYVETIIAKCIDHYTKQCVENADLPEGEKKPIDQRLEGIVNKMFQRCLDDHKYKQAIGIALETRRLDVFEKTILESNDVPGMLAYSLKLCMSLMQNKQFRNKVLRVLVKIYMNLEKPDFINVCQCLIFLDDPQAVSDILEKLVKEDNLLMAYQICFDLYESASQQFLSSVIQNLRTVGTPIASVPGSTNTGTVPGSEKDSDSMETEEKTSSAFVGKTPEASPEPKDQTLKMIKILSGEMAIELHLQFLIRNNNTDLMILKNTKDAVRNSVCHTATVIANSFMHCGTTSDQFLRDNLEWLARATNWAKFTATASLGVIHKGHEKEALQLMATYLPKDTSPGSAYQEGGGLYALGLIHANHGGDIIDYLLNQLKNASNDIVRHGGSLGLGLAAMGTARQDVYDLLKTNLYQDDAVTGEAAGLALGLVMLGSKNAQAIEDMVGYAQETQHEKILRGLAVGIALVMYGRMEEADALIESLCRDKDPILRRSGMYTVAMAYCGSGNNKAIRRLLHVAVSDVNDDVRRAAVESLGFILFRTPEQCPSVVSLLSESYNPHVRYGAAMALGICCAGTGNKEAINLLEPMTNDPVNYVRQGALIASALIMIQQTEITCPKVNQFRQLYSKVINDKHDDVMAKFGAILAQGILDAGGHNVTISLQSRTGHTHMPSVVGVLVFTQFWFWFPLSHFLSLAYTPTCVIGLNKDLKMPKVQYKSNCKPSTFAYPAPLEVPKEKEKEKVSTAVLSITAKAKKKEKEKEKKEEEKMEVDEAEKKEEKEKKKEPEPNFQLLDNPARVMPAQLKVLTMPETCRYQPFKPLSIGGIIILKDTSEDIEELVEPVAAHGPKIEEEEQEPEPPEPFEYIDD

SMILES: C#CCOc1ccc([C@@H]2C[C@@H](C(=O)Nc3ccc(OC(F)(F)F)cc3)CN(S(=O)(=O)C=C)C2)cc1 (relative stereo) [13-t]
- enrich.exp.med [1]: 0.3258
- enrich.exp.med [2]: 1.908
- enrich.exp.med [3]: 0.9779
- enrich.exp.med [4]: -1.7768
- enrich.exp.med [5]: -1.532
- enrich.exp.med [6]: -0.3746
- enrich.exp.med [7]: -1.278
- enrich.exp.med ([8]; Probe, protein LDHB P07195): -0.537
- enrich.exp.med.lin ([8]; protein LDHB (P07195)): 0.6892
- enrich.exp.med.log2 ([8]; protein LDHB (P07195)): -0.537
- enrich.exp.med.lin ([9]; Expt Probe): 10.7591
- enrich.exp.med.log2 ([9]; Expt Probe): 3.427
- enrich.exp.med ([9]; exp_ref Probe): 3.427
- enrich.exp.med [10]: -0.3286
- enrich.exp.med [11]: 1.571
- enrich.exp.med [12]: 0.04694
- enrich.exp.med ([13]; Probe, protein DLD P09622): -1.39
- enrich.exp.med.lin ([13]; protein DLD (P09622)): 0.3817
- enrich.exp.med.log2 ([13]; protein DLD (P09622)): -1.39
- enrich.exp.med [14]: -0.9693
- enrich.exp.med [15]: 1.73
